Results reported in patent US20240299316A1, “METHOD FOR TREATING CANCER WITH A[…] RADIATION” (LANTERN PHARMA INC., priority 2021, published 2024).
Entries after “also recorded” stand apart in the source; their conditions may differ.

Tested on: Panc03.27 xenografts
Experiment: Radiation (RT) pretreatment followed by LP-184 in subcutaneous Panc03.27 pancreatic xenografts
Assay type: in vivo, Mice
Settings: for interaction of radiation with LP-184 on tumor volume (synergy) / mean terminal tumor volume of LP-184+RT group relative to LP-184 alone or RT alone: 4 Gy RT + 3 mg/kg i.p. LP-184, 3 mg/kg; for interaction of radiation with LP-184 on tumor volume (synergy): average tumor volume over days post treatment initiation; for mean terminal tumor volume of LP-184+RT group relative to LP-184 alone or RT alone: p value 0.017
Procedure: Radiation (RT) pretreatment of pancreatic tumors and subsequent (−)-hydroxyureamethyl acylfulvene treatment in vivo, 4 Gy RT was administered once weekly followed the next day by 3 mg/kg i.p. LP-184 in Panc03.27 xenografts for a total of 3 weeks. Mice bearing pre-established subcutaneous. Panc03.27 xenografts were treated with vehicle control, 4 Gy RT alone, 3 mg/kg LP-184 alone or their combination.
A line plot of average tumor volume in cubic millimeters over days post treatment initiation in Panc03.27 subcutaneous xenograft tumors treated with vehicle control (gray circles; N=6) is shown, 4 Gy RT alone (red squares; N=5), 3 mg/kg i.p. LP-184 alone (green triangles; N=6), and RT+LP-184 (blue inverted triangles; N=10). Error bars represent SEM.

`CC1=C2C(=CC(C)C2CN(O)C(N)=O)C(=O)[C@](C)(O)C12CC2` (single isomer, unassigned; (-)) [LP-184, (−)-hydroxyureamethyl acylfulvene] was tested, and the “interaction of radiation with LP-184 on tumor volume (synergy)” value was “synergized”, the “interaction of radiation with LP-184 on tumor volume (synergy)” value (listed as hydroxyureamethyl acylfulvene) was “synergy” and the “mean terminal tumor volume of LP-184+RT group relative to LP-184 alone or RT alone” value (day 21) was “statistically significant differences; also recorded: statistically smaller”. For the same compound, the “mean terminal tumor volume of LP-184+RT group relative to LP-184 alone or RT alone” value (day 21, listed as hydroxyureamethyl acylfulvene) was “statistically smaller”, the “mean tumor volume, fold lower in LP-184+RT animals compared to LP-184 alone animals” value (4 Gy RT once weekly followed next day by 3 mg/kg i.p. LP-184, 3 weeks, terminal tumors day 21, p=0.017) was about 1.8 fold and the “comparison of excised xenograft tumors at study termination across treatment arms” value (LP-184+RT group, day 21, FIG. 3) was “smallest mean volume”. For the same compound, the “efficacy of combination therapy using post-radiation treatment” value (post-radiation treatment with LP-184, pancreatic cancer) was “effective”.
